Laboratory results taken from paper PMC9209526 (Nature Communications, 2022).

Target: T1, N4posG321V (Abl kinase domain hinge mutant) (Homo sapiens, UniProt P00519, G321V)
T1 construct: His10-TEV (N, cleaved yes); made in house; host or cells: E. coli BL21(DE3)pLysS, co-expressed with YopH phosphatase
T1 sequence (P00519 229-512 G321V): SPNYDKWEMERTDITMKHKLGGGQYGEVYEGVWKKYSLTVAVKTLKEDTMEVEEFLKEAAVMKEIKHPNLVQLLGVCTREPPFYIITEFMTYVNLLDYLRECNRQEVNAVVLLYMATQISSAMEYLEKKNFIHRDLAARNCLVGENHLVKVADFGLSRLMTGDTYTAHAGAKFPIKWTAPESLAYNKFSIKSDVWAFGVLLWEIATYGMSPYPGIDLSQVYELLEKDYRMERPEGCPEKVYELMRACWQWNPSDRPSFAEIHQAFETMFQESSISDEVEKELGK
Experiment: ClyA-AS nanopore tweezers single-channel current recording: ligand binding to N4posG321V
Details: 1 mM ATP or ATPγS with 10 mM MgCl2; -80 mV

Nc1ncnc2c1ncn2[C@@H]1O[C@H](CO[P@](=O)(O)O[P@](=O)(O)O[P@@](=O)(O)S)[C@@H](O)[C@H]1O [ATPγS]
effect on N4posG321V current trace: did not trigger any change in the current trace
